Data taken from ChEMBL document CHEMBL1138551, “Antimicrobial studies of some novel quinazolinones fused with [1,2,4]-triazole, [1,2,4]-triazine and [1,2,4,5]-tetrazine rings” (2009).
Converted amounts (≈) assume the structure as drawn.

Assays:
Format in all cases: functional
Escherichia coli = assay: Antibacterial activity against Escherichia coli after 24 hrs by disk diffusion method
Aspergillus flavus = assay: Antifungal activity against Aspergillus flavus after 26 hrs by serial plate dilution method
Pseudomonas aeruginosa = assay: Antibacterial activity against Pseudomonas aeruginosa after 24 hrs by disk diffusion method
Streptococcus pneumoniae = assay: Antibacterial activity against Streptococcus pneumoniae after 24 hrs by disk diffusion method
Aspergillus fumigatus = assay: Antifungal activity against Aspergillus fumigatus after 26 hrs by serial plate dilution method
Candida albicans = assay: Antifungal activity against Candida albicans after 26 hrs by serial plate dilution method
Bacillus subtilis = assay: Antibacterial activity against Bacillus subtilis after 24 hrs by disk diffusion method
Aspergillus niger = assay: Antifungal activity against Aspergillus niger after 26 hrs by serial plate dilution method

Structure (SMILES)	MIC (Escherichia coli) [µg/mL]	MIC (Aspergillus flavus) [µg/mL]	MIC (Pseudomonas aeruginosa) [µg/mL]	MIC (Streptococcus pneumoniae) [µg/mL]	MIC (Aspergillus fumigatus) [µg/mL]	MIC (Candida albicans) [µg/mL]	MIC (Bacillus subtilis) [µg/mL]	MIC (Aspergillus niger) [µg/mL]
COc1ccc(-n2c(=O)c3ccccc3n3c(-c4ccccc4)nnc23)cc1	12.5 (≈ 33.9 µM)	25 (≈ 67.9 µM)	6.25 (≈ 17 µM)	6.25 (≈ 17 µM)	12.5 (≈ 33.9 µM)	6.25 (≈ 17 µM)	12.5 (≈ 33.9 µM)	3.12 (≈ 8.47 µM)
Cc1ccc(-n2c(=O)c3ccccc3n3c(-c4ccccc4)nnc23)cc1	25 (≈ 70.9 µM)	50 (≈ 142 µM)	25 (≈ 70.9 µM)	50 (≈ 142 µM)	25 (≈ 70.9 µM)	> 50	50 (≈ 142 µM)	50 (≈ 142 µM)
Cc1ccc(N2C(=O)c3ccccc3N3C2=NNC(=S)N3c2ccccc2)cc1	25 (≈ 62.6 µM)	12.5 (≈ 31.3 µM)	25 (≈ 62.6 µM)	> 50	12.5 (≈ 31.3 µM)	25 (≈ 62.6 µM)	25 (≈ 62.6 µM)	25 (≈ 62.6 µM)
Cc1ccc(-n2c(=O)c3ccccc3n3c4nc5ccccc5c-4nnc23)cc1	25 (≈ 66.2 µM)	25 (≈ 66.2 µM)	> 50	25 (≈ 66.2 µM)	12.5 (≈ 33.1 µM)	25 (≈ 66.2 µM)	25 (≈ 66.2 µM)	50 (≈ 132 µM)
O=C1c2ccccc2N2C(=NNC(=S)N2c2ccccc2)N1c1ccccc1	> 50	> 50	50 (≈ 130 µM)	25 (≈ 64.9 µM)	> 50	25 (≈ 64.9 µM)	> 50	25 (≈ 64.9 µM)

Continued, values first:

MIC (Escherichia coli) [µg/mL]	MIC (Aspergillus flavus) [µg/mL]	MIC (Pseudomonas aeruginosa) [µg/mL]	MIC (Streptococcus pneumoniae) [µg/mL]	MIC (Aspergillus fumigatus) [µg/mL]	MIC (Candida albicans) [µg/mL]	MIC (Bacillus subtilis) [µg/mL]	MIC (Aspergillus niger) [µg/mL]	Structure (SMILES)
6.25 (≈ 16.3 µM)	25 (≈ 65.4 µM)	3.12 (≈ 8.16 µM)	25 (≈ 65.4 µM)	6.25 (≈ 16.3 µM)	12.5 (≈ 32.7 µM)	12.5 (≈ 32.7 µM)	6.25 (≈ 16.3 µM)	COc1ccc(-n2c(=O)c3ccccc3n3c(-c4ccccc4C)nnc23)cc1
6.25 (≈ 16.8 µM)	12.5 (≈ 33.5 µM)	12.5 (≈ 33.5 µM)	12.5 (≈ 33.5 µM)	6.25 (≈ 16.8 µM)	12.5 (≈ 33.5 µM)	6.25 (≈ 16.8 µM)	25 (≈ 67.1 µM)	O=c1c2ccccc2n2c(-c3ccccc3)nnc2n1-c1ccc(Cl)cc1
50 (≈ 148 µM)	> 50	> 50	50 (≈ 148 µM)	> 50	25 (≈ 73.9 µM)	25 (≈ 73.9 µM)	25 (≈ 73.9 µM)	O=c1c2ccccc2n2c(-c3ccccc3)nnc2n1-c1ccccc1
12.5 (≈ 31.8 µM)	3.12 (≈ 7.93 µM)	12.5 (≈ 31.8 µM)	12.5 (≈ 31.8 µM)	6.25 (≈ 15.9 µM)	6.25 (≈ 15.9 µM)	6.25 (≈ 15.9 µM)	12.5 (≈ 31.8 µM)	COc1ccc(-n2c(=O)c3ccccc3n3c4nc5ccccc5c-4nnc23)cc1
6.25 (≈ 15 µM)	25 (≈ 60.2 µM)	3.12 (≈ 7.51 µM)	25 (≈ 60.2 µM)	12.5 (≈ 30.1 µM)	6.25 (≈ 15 µM)	3.12 (≈ 7.51 µM)	3.12 (≈ 7.51 µM)	COc1ccc(N2C(=S)NN=C3N(c4ccccc4)C(=O)c4ccccc4N32)cc1
25 (≈ 70.9 µM)	25 (≈ 70.9 µM)	50 (≈ 142 µM)	> 50	25 (≈ 70.9 µM)	50 (≈ 142 µM)	> 50	> 50	Cc1ccccc1-c1nnc2n(-c3ccccc3)c(=O)c3ccccc3n12
